Results published in the NIST ThermoML archive (doi:10.1016/j.jct.2016.02.016).
Numbers after ± are expanded uncertainties.

Legend:
[1] = refractive index (Na D-line) (dimensionless); settings: 101.33 kPa, Liquid, Standard Abbe refractometry
[2] = 101.33 kPa, Liquid; for speed of sound: Sing-around technique in a fixed-path interferometer; for mass density: Vibrating tube method
[3] = refractive index (Na D-line) (dimensionless); xn = mol fraction of the nth substance listed; settings: 100 kPa, Liquid, Standard Abbe refractometry
[4] = xn = mol fraction of the nth substance listed; settings: 100 kPa, Liquid; for speed of sound: Frequency=3 MHz, Sing-around technique in a fixed-path interferometer; for mass density: Vibrating tube method

CCCCCC(C)=O [2-heptanone]
Settings	mass density, 293.15 K [kg/m3]	mass density, 298.15 K [kg/m3]	mass density, 303.15 K [kg/m3]	refractive index, 298.15 K	speed of sound, 293.15 K [m/s]	speed of sound, 298.15 K [m/s]	speed of sound, 303.15 K [m/s]
[1]	–	–	–	1.40688 ± 0.0042	–	–	–
[2]	815.39 ± 2	811.08 ± 2	806.81 ± 1.9	–	1282.1 ± 1.6	1262.7 ± 1.5	1244.4 ± 1.5

CCCCCC(C)=O [2-heptanone] + CN(C)C=O
298.15 K
Settings	mass density, [4] [kg/m3]	refractive index, [3]	speed of sound, [4] [m/s]
x2 = 0	811.08 ± 2	1.40688 ± 0.0042	1262.7 ± 1.6
x2 = 0.053	815.095 ± 2	1.40756 ± 0.0042	1268.2 ± 1.5
x2 = 0.0936	818.298 ± 2	1.40811 ± 0.0042	1272.9 ± 1.5
x2 = 0.1502	822.964 ± 2	1.4089 ± 0.0042	1279 ± 1.5
x2 = 0.2011	827.389 ± 2	1.40962 ± 0.0042	1285.3 ± 1.5
x2 = 0.2495	831.808 ± 2	1.41034 ± 0.0042	1291.3 ± 1.5
x2 = 0.296	836.272 ± 2	1.41107 ± 0.0043	1297.5 ± 1.5
x2 = 0.3419	840.896 ± 2	1.41182 ± 0.0043	1304 ± 1.5
x2 = 0.3963	846.646 ± 2	1.41276 ± 0.0043	1312.2 ± 1.5
x2 = 0.4324	850.691 ± 2.1	1.41341 ± 0.0043	1318 ± 1.5
x2 = 0.4957	858.13 ± 2.1	1.41462 ± 0.0043	1328.7 ± 1.5
x2 = 0.5537	–	1.41582 ± 0.0043	–
x2 = 0.5985	871.481 ± 2.1	1.41679 ± 0.0043	1348.2 ± 1.5
x2 = 0.6368	876.894 ± 2.1	1.41766 ± 0.0043	1356.2 ± 1.5
x2 = 0.6999	886.398 ± 2.1	1.41919 ± 0.0043	1370.3 ± 1.5
x2 = 0.7433	893.368 ± 2.2	1.42032 ± 0.0043	1380.8 ± 1.5
x2 = 0.8482	911.958 ± 2.2	1.42329 ± 0.0043	1408.7 ± 1.5
x2 = 0.8634	914.867 ± 2.2	1.42376 ± 0.0043	1413.1 ± 1.5
x2 = 0.8985	921.855 ± 2.2	1.42488 ± 0.0043	1423.7 ± 1.5
x2 = 0.948	932.305 ± 2.3	1.42651 ± 0.0043	1439.5 ± 1.5

CC(C)=O [acetone]
Settings	mass density, 293.15 K [kg/m3]	mass density, 298.15 K [kg/m3]	mass density, 303.15 K [kg/m3]	refractive index, 293.15 K	refractive index, 298.15 K	speed of sound, 293.15 K [m/s]	speed of sound, 298.15 K [m/s]	speed of sound, 303.15 K [m/s]
[1]	–	–	–	1.35845 ± 0.0041	1.35386 ± 0.0041	–	–	–
[2]	790.19 ± 1.9	784.43 ± 1.9	778.63 ± 1.9	–	–	1183.6 ± 1.1	1163.6 ± 1.1	1139.9 ± 1.1

CCC(C)=O [butanone]
Settings	mass density, 293.15 K [kg/m3]	mass density, 298.15 K [kg/m3]	mass density, 303.15 K [kg/m3]	refractive index, 293.15 K	refractive index, 298.15 K	refractive index, 303.15 K	speed of sound, 293.15 K [m/s]	speed of sound, 298.15 K [m/s]	speed of sound, 303.15 K [m/s]
[1]	–	–	–	1.37872 ± 0.0042	1.37605 ± 0.0041	1.37351 ± 0.0041	–	–	–
[2]	805.06 ± 1.9	799.78 ± 1.9	794.55 ± 1.9	–	–	–	1212.6 ± 1.2	1191.5 ± 1.2	1172 ± 1.2

CN(C)C=O [dimethylformamide]
Settings	mass density, 293.15 K [kg/m3]	mass density, 298.15 K [kg/m3]	mass density, 303.15 K [kg/m3]	refractive index, 293.15 K	refractive index, 298.15 K	refractive index, 303.15 K	speed of sound, 293.15 K [m/s]	speed of sound, 298.15 K [m/s]	speed of sound, 303.15 K [m/s]
[1]	–	–	–	1.43055 ± 0.0043	1.4284 ± 0.0043	1.4261 ± 0.0043	–	–	–
[2]	948.82 ± 2.3	944.06 ± 2.3	939.28 ± 2.3	–	–	–	1476.7 ± 1.5	1458.6 ± 1.4	1438.8 ± 1.4

CN(C)C=O [dimethylformamide] + CC(C)=O
x1 = 1
Settings	mass density, 293.15 K [kg/m3]	mass density, 298.15 K [kg/m3]	mass density, 303.15 K [kg/m3]	refractive index, 293.15 K	refractive index, 298.15 K	speed of sound, 293.15 K [m/s]	speed of sound, 298.15 K [m/s]	speed of sound, 303.15 K [m/s]
[3]	–	–	–	1.43055 ± 0.0043	1.4284 ± 0.0043	–	–	–
[4]	948.82 ± 2.3	944.06 ± 2.3	939.28 ± 2.3	–	–	1476.7 ± 1.5	1458.6 ± 1.4	1438.8 ± 1.4

CN(C)C=O [dimethylformamide] + CCC(C)=O
x1 = 1
Settings	mass density, 293.15 K [kg/m3]	mass density, 298.15 K [kg/m3]	mass density, 303.15 K [kg/m3]	refractive index, 293.15 K	refractive index, 298.15 K	refractive index, 303.15 K	speed of sound, 293.15 K [m/s]	speed of sound, 298.15 K [m/s]	speed of sound, 303.15 K [m/s]
[3]	–	–	–	1.43055 ± 0.0043	1.4284 ± 0.0043	1.4261 ± 0.0043	–	–	–
[4]	948.82 ± 2.3	944.06 ± 2.3	939.28 ± 2.3	–	–	–	1476.7 ± 1.5	1458.6 ± 1.4	1438.8 ± 1.4

CN(C)C=O [dimethylformamide] + CCCC(C)=O
x1 = 1
Settings	mass density, 293.15 K [kg/m3]	mass density, 298.15 K [kg/m3]	mass density, 303.15 K [kg/m3]	refractive index, 293.15 K	refractive index, 298.15 K	refractive index, 303.15 K	speed of sound, 293.15 K [m/s]	speed of sound, 298.15 K [m/s]	speed of sound, 303.15 K [m/s]
[3]	–	–	–	1.43055 ± 0.0043	1.4284 ± 0.0043	1.4261 ± 0.0043	–	–	–
[4]	948.82 ± 2.3	944.06 ± 2.3	939.28 ± 2.3	–	–	–	1476.7 ± 1.5	1458.6 ± 1.4	1438.8 ± 1.4

CN(C)C=O [dimethylformamide] + CCCCCC(C)=O
298.15 K, x1 = 1
Settings	mass density [kg/m3]	refractive index	speed of sound [m/s]
[3]	–	1.4284 ± 0.0043	–
[4]	944.06 ± 2.3	–	1458.6 ± 1.4

CCCC(C)=O [pentan-2-one]
Settings	mass density, 293.15 K [kg/m3]	mass density, 298.15 K [kg/m3]	mass density, 303.15 K [kg/m3]	refractive index, 293.15 K	refractive index, 298.15 K	refractive index, 303.15 K	speed of sound, 293.15 K [m/s]	speed of sound, 298.15 K [m/s]	speed of sound, 303.15 K [m/s]
[1]	–	–	–	1.39026 ± 0.0042	1.38793 ± 0.0042	1.38523 ± 0.0042	–	–	–
[2]	806.83 ± 2	801.99 ± 2	796.73 ± 2	–	–	–	1232.4 ± 2.3	1211.9 ± 2.3	1191.7 ± 2.3
